Source: EP0219782A2, “Use of angiotensin-converting enzyme inhibitors in the treatment of atherosclerosis, thrombosis and peripheral vascular disease” (HOECHST AKTIENGESELLSCHAFT, priority 1985, dated 1987)

Experiments:
[1] = test system: Plättchenaggregation; experiment: Chronic study: ex vivo platelet aggregation after 14 days of dosing in conscious rabbits; set-up: species or system Kaninchen; details: 1 mg/kg/d for 14 days; found in all animals
From the text: (§1) Plättchenreiches Kaninchenplasma wird wie von Born (Arzneimittel-Forsch. 31, 2012 (1981)) angegeben, gewonnen. Die Plättchenaggregation wird durch Erhöhung des Lichtdurchganges durch eine Küvette, die dieses Plasma enthält, gemessen. Die Plättchenzahl wird durch Verdünnung mit autologem, plättchenarmem Plasma auf 450000/mm^s eingestellt. […] Dagegen wird eine durch 4 pg/ml PGI2 bewirkte Aggregationshemmung gegen Arachidonsäure durch die Verbindung der Formel II in genannten Dosisbereich auf 100% gesteigert.
(§2) Nach 1 Stunde werden die Tiere getötet und plättchenreiches Plasma gewonnen. Die Plättchenaggregation wird wie unter A) beschrieben bestimmt.
Wache Kaninchen erhielten 1 mg/kg/d der Verbindung der Formel II für 14 Tage, dann wurde wie unter 1) beschrieben weiter verfahren.

[2] = test system: Plättchenaggregation; experiment: Acute study: ex vivo platelet aggregation after a single oral dose in conscious rabbits; set-up: species or system Kaninchen; details: single oral dose 1,0 - 10,0 mg/kg, plasma taken after 1 hour
From the text: as §1
Wache Kaninchen erhielten eine einmalige orale Dosis von 1,0 - 10,0 mg/kg der Verbindung der Formel II.
as §2

[3] = test system: Plättchenaggregation; experiment: Platelet aggregation in platelet-rich rabbit plasma in vitro (light transmission, Born); type: cell-based, Kaninchen
From the text: as §1

CCOC(=O)[C@H](CCc1ccccc1)N[C@@H](C)C(=O)N1[C@H](C(=O)O)C[C@@H]2CCC[C@@H]21 [Formel II, N-(l-S-Carbethoxy-3-phenyl-propyl)-S-alanyl-cis-endo-2-azabicyclo[3.3.0]octan-3-S-carbonsäure]
durch ADP ausgelöste Plättchenaggregation [1]: ausgeprägte Inhibierung
durch Arachidonsäure ausgelöste Plättchenaggregation [1]: ausgeprägte Inhibierung
Aggregation gegenüber ADP [2]: vermindert
Aggregation gegenüber Kollagen [2]: vermindert
Potenzierung der PGI2-Wirkung [2]: ebenfalls beobachtet
Aggregation gegenüber Arachidonsäure ([2]; effect especially against Arachidonsäure): vermindert
durch PGI2 bewirkte Aggregationshemmung gegen Arachidonsäure, gesteigert auf ([3]; 4 pg/ml PGI2, compound at 0.1-10 pg/ml Plasma): 100%
Einfluß auf die durch Kollagen ausgelöste Aggregation ([3]; 0.1-10 pg/ml Plasma, stimulus 4 pg/ml Kollagen): keinen Einfluß
Einfluß auf die durch Arachidonsäure ausgelöste Aggregation ([3]; 0.1-10 pg/ml Plasma, stimulus 0.24 mmol/1 Arachidonsäure): keinen Einfluß
Einfluß auf die durch ADP ausgelöste Aggregation ([3]; 0.1-10 pg/ml Plasma, stimulus 5 mmol/1 ADP): keinen Einfluß
